Our source for the MIC and IC50 values is ChEMBL document CHEMBL3621045, “Structural Insights Lead to a Negamycin Analogue with Improved Antimicrobial Activity against Gram-Negative Pathogens” (ACS Med Chem Lett, 2015).

The subject of assay [1] is Pseudomonas aeruginosa. Put plainly: Antibacterial activity against Pseudomonas aeruginosa PAO1. Format: functional.
The test system of assay [2] is Acinetobacter baumannii. Put plainly: Antibacterial activity against Acinetobacter baumannii ARC 3495. Format: functional.
Assay [3] deals with Pseudomonas aeruginosa. Kind of assay: Antibacterial activity against mexABCDXY-deficient Pseudomonas aeruginosa PAO1. Format: functional.
Assay [4] deals with Escherichia coli. Put plainly: microbe, parasite or virus in culture. Particulars: ATCC 25922.
Description: Antibacterial activity against tolC-deficient Escherichia coli ATCC 25922
For assay [5], the system named is Escherichia coli. Put plainly: Inhibition of transcription-translation process in Escherichia coli. Format: functional.
For assay [6], the system named is Klebsiella pneumoniae. Kind of assay: Antibacterial activity against Klebsiella pneumoniae ATCC 700603. It counts as functional.
The subject of assay [7] is Escherichia coli. Kind of assay: microbe, parasite or virus in culture. The conditions noted are these: ATCC 25922. This is another data set of the same source.
Description: Antibacterial activity against Escherichia coli ATCC 25922

Values after ≈ are worked out from the molar mass of the structure shown.

Turning to `CN(CC(=O)O)NC(=O)C[C@H](N)C[C@@H](O)CNCCCN`, the MIC in assay [1] turned out to be 16 µg/mL (≈ 52.4 µM); in assay [2], 4 µg/mL (≈ 13.1 µM); in assay [3], 8 µg/mL (≈ 26.2 µM); in assay [4] it was 16 µg/mL (≈ 52.4 µM); in assay [6], 4 µg/mL (≈ 13.1 µM); in assay [7] it was 8 µg/mL (≈ 26.2 µM). In addition, the midpoint of inhibition in assay [5] (Escherichia coli), the IC50, lay at 0.34 µM.
On to `NC[C@H](O)C[C@@H](N)CC(=O)NNCC(=O)O`, for which the MIC in assay [1], in assay [2], in assay [6] and in assay [7] was greater than 64 µg/mL each time. In assay [5] (Escherichia coli), this compound had an IC50 of 34 µM.
For `CN(CC(=O)O)NC(=O)C[C@H](N)C[C@@H](O)[C@H](N)CO`, the MIC in assay [1], in assay [2], in assay [6] and in assay [7] was greater than 512 µg/mL in each case. Besides, in assay [5] (Escherichia coli), half-maximal inhibition (IC50) required 78 µM.
`CC(C(=O)NN(C)CC(=O)O)[C@H](N)C[C@@H](O)CN` (some centres undefined): the MIC in assay [1] was no less than 256 µg/mL; in assay [2], 128 µg/mL (≈ 488 µM); in assay [6], no less than 256 µg/mL; in assay [7], 128 µg/mL (≈ 488 µM). This compound also returned an IC50 in assay [5] (Escherichia coli) of 12 µM.
Take `CN(CC(=O)O)NC(=O)C[C@H](N)C[C@@H](O)CN` [NEGAMYCIN]: the MIC in assay [1] came out at 32 µg/mL (≈ 129 µM); in assay [2], 16 µg/mL (≈ 64.4 µM); in assay [3], 16 µg/mL (≈ 64.4 µM); in assay [4] it was 16 µg/mL (≈ 64.4 µM); in assay [6], 32 µg/mL (≈ 129 µM); in assay [7], 16 µg/mL (≈ 64.4 µM). The compound also came in with an IC50 in assay [5] (Escherichia coli) of 1.7 µM.
`CN(CC(=O)O)NC(=O)C[C@H](N)C[C@@H](O)CNCC1CNC1`: the MIC in assay [1] was found to be 256 µg/mL (≈ 807 µM); in assay [2] it was 128 µg/mL (≈ 403 µM); in assay [3] it was 128 µg/mL (≈ 403 µM); in assay [4], 128 µg/mL (≈ 403 µM); in assay [6] it was 64 µg/mL (≈ 202 µM); in assay [7], 256 µg/mL (≈ 807 µM). Inhibition in assay [5] (Escherichia coli) was half-maximal at 3.9 µM (IC50).
For the compound `CN(CC(=O)O)NC(=O)C[C@H](N)C[C@@H](O)CNCC1CCNC1` (some centres undefined), the MIC turned out to be 256 µg/mL (≈ 772 µM) in assay [1]; 64 µg/mL (≈ 193 µM) in assay [2]; 128 µg/mL (≈ 386 µM) in assay [3]; 256 µg/mL (≈ 772 µM) in assay [4]; 128 µg/mL (≈ 386 µM) in assay [6]; 256 µg/mL (≈ 772 µM) in assay [7]. In assay [5] (Escherichia coli), this compound registered an IC50 of 3.3 µM.
`CN(CC(=O)O)NC(=O)C[C@H](N)C[C@@H](O)CNCCCCN`: the MIC in assay [1] was 128 µg/mL (≈ 401 µM); in assay [2] it was 16 µg/mL (≈ 50.1 µM); in assay [3] it was 64 µg/mL (≈ 200 µM); in assay [4], 32 µg/mL (≈ 100 µM); in assay [6] it was 16 µg/mL (≈ 50.1 µM); in assay [7], 32 µg/mL (≈ 100 µM). The compound also gave an IC50 in assay [5] (Escherichia coli) of 0.74 µM.
For `CN(CC(=O)O)NC(=O)C[C@H](N)C[C@H](F)CN`, the MIC in assay [1], in assay [2], in assay [6] and in assay [7] was greater than 512 µg/mL in each case. For the same compound, the IC50 in assay [5] (Escherichia coli) was found to be 26 µM.
For GENTAMICIN [listing 1 of 2 here], the midpoint of inhibition in assay [5], the IC50, lay at 0.4 µM.
For GENTAMICIN [listing 2 of 2 here], the MIC is 1 µg/mL in assay [1], greater than 64 µg/mL in assay [2], 0.13 µg/mL in assay [3] and 8 µg/mL in assay [6].
`CN(CC(=O)O)NC(=O)C[C@H](N)C[C@@H](O)CNCCF`: the MIC in assay [1] was greater than 256 µg/mL; in assay [2], 128 µg/mL (≈ 435 µM); in assay [3], 256 µg/mL (≈ 870 µM); in assay [4] it was 128 µg/mL (≈ 435 µM); in assay [6], 64 µg/mL (≈ 217 µM); in assay [7], 64 µg/mL (≈ 217 µM). Also, in assay [5] (Escherichia coli), the IC50 was 2.3 µM.
For the compound `CC(CCN)NC[C@H](O)C[C@@H](N)CC(=O)NN(C)CC(=O)O` (some centres undefined), the MIC was 32 µg/mL (≈ 100 µM) in assay [1]; 8 µg/mL (≈ 25 µM) in assay [2]; 32 µg/mL (≈ 100 µM) in assay [3]; 16 µg/mL (≈ 50.1 µM) in assay [4]; 8 µg/mL (≈ 25 µM) in assay [6]; 16 µg/mL (≈ 50.1 µM) in assay [7]. Besides, the IC50 in assay [5] (Escherichia coli) was 0.44 µM.
On to `CN(CC(=O)O)NC(=O)C[C@H](N)C[C@H](O)CN`, for which the MIC was greater than 1020 µg/mL in assay [1], 512 µg/mL (≈ 2060 µM) in assay [2], 1020 µg/mL (≈ 4120 µM) in assay [6] and 1020 µg/mL (≈ 4120 µM) in assay [7]. For the same compound, the half-maximal inhibitory concentration (IC50) in assay [5] (Escherichia coli) came to 51 µM.
For `CN(CC(=O)O)NC(=O)C[C@@H](N)C[C@@H](O)CN`, the MIC in assay [1] is greater than 256 µg/mL; in assay [2] it was 256 µg/mL (≈ 1030 µM); in assay [6], 256 µg/mL (≈ 1030 µM); in assay [7], greater than 256 µg/mL. The same compound registered a 50% inhibitory concentration (IC50) in assay [5] (Escherichia coli) of 13 µM.
Turning to `CN(CC(=O)O)NC(=O)C[C@H](N)C[C@@H](O)[C@@H](N)CO`, the MIC in assay [1] was greater than 128 µg/mL; in assay [2] it was 128 µg/mL (≈ 460 µM); in assay [6], greater than 128 µg/mL; in assay [7], greater than 128 µg/mL. Moreover, the IC50 in assay [5] (Escherichia coli) turned out to be 7.3 µM.
Consider `CN(CC(=O)O)N(C)C(=O)C[C@H](N)C[C@@H](O)CN`, for which the MIC in assay [1], in assay [2], in assay [6] and in assay [7] was greater than 256 µg/mL in each case. Besides, in assay [5] (Escherichia coli), the IC50 is greater than 100 µM.
`CCN(CC(=O)O)NC(=O)C[C@H](N)C[C@@H](O)CN`: the MIC in assay [1] stood at 128 µg/mL (≈ 488 µM); in assay [2], 256 µg/mL (≈ 976 µM); in assay [6] it was 128 µg/mL (≈ 488 µM); in assay [7] it was 256 µg/mL (≈ 976 µM). The same compound yielded an IC50 in assay [5] (Escherichia coli) of 7.4 µM.

As usually defined, the IC50 is the midpoint of a concentration-inhibition curve. Higher therefore signals weaker potency.
